Measurements reported in US20050009924A1 (priority 2003, published 2005).
Counter-ions that a name gives are not always drawn.

Legend:
[1] = system: iron-induced lipid peroxidation in rat brain homogenates; experiment: Iron-induced lipid peroxidation in rat brain homogenates; settings: for Inhibition of LP(10 mM): mean percent inhibition (Table 3); for LP (%) (10 mM): relative percentage of inhibition (Table 1)
[2] = system: non-small-cell lung cancer cells H1299; experiment: MTT relative viability, PhTERT-SEAP (H1299) cells; settings: PhTERT-SEAP(hTERT-H1299)
hTERT-BJ1 cells = experiment: MTT relative viability, PhTERT-SEAP (hTERT-BJ1) cells; settings: PhTERT-SEAP (hTERT-BJ1)
[3] = system: hepatitis B virus transfected hepatoma cell lines, HepG 2.2.15 cells; experiment: Cytotoxicity assay, 2.2.15 cells; assay type: cell-based, human; settings: 48 h of drug exposure
[4] = system: transcriptional activity of hTERT; experiment: SEAP reporter assay of hTERT expression, PhTERT-SEAP (H1299); assay type: cell-based, human; settings: PhTERT-SEAP(hTERT-H1299)
Procedure, shortened: (§1)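 We treated G418-selected reporter cells with varying drug amounts for 24 h and measured SEAP in the heat-inactivated medium as the rate of 405 nm absorbance increase.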

rat glioma C6 cells = experiment: Cytotoxicity assay (XTT colorimetric), C6 cells; assay type: cell-based; settings: 48 h of drug exposure
[5] = system: transcriptional activity of hTERT; experiment: SEAP reporter assay of hTERT expression, PhTERT-SEAP (hTERT-BJ1); assay type: cell-based, human; settings: PhTERT-SEAP (hTERT-BJ1)
Procedure, shortened: as §1

human hepatoma G2 cells = experiment: Cytotoxicity assay (XTT colorimetric), Hep G2; assay type: cell-based; settings: 48 h of drug exposure

## Cc1c(C)c2c(c(C)c1O)CC[C@@](C)(CCC[C@H](C)CCC[C@H](C)CCCC(C)C)O2 [(+)−α-Tocopherol, reference compound]
[1]; 0.01 mM
  Inhibition (%): 0%
[1]; 0.1 mM
  Inhibition (%): 0%
[1]; 1 mM
  Inhibition (%): 55 ± 1.7%
[1]; 10 mM
  Inhibition (%): 100%
  Inhibition of LP(10 mM): >100%
  LP (%) (10 mM): >100%

## O=C1c2cccc(O)c2C(=O)c2cccc(O)c21 [Anthrarufin, 1,5-dihydroxyanthraquinone, reference compound]
[1]; 10 mM
  Inhibition of LP(10 mM): −36 ± 1.1^ %
  LP (%) (10 mM): −36 ± 1.9%

## O=C1O[C@H]([C@@H](O)CO)C(O)=C1O [Ascorbic acid, reference compound]
[1]; 0.01 mM
  Inhibition (%): 10 ± 0.6%
[1]; 0.1 mM
  Inhibition (%): 32 ± 1.2%
[1]; 1 mM
  Inhibition (%): 75 ± 1.5%
[1]; 10 mM
  Inhibition (%): 100%
  Inhibition of LP(10 mM): >100%
  LP (%) (10 mM): >100%

## O=C1c2c(O)ccc(O)c2C(=O)c2c(NCCNCCO)ccc(NCCNCCO)c21 [Mitoxantrone-HCl, reference compound]
[1]; 0.01 mM
  Inhibition (%): 5 ± 0.3%
[1]; 0.1 mM
  Inhibition (%): 22 ± 3.5%
[1]; 1 mM
  Inhibition (%): 54 ± 2.1%
[1]; 10 mM
  Inhibition (%): 100%

## O=C(Nc1ccc(NC(=O)c2ccco2)c2c1C(=O)c1ccccc1C2=O)c1ccco1 [VI24, 1,4-Bis(2-furoylamido)-9,10-anthracenedione]
[2]; 2.3 μM
  Relative MTT viability (%): 101 ± 6.0%
[2]; 23 μM
  Relative MTT viability (%): 75 ± 3.9%
[2]; 234 μM
  Relative MTT viability (%): 32 ± 5.1%
hTERT-BJ1 cells; 2.3 μM
  Relative MTT viability (%): 91 ± 9.5%
hTERT-BJ1 cells; 23 μM
  Relative MTT viability (%): 69 ± 10.7%
hTERT-BJ1 cells; 234 μM
  Relative MTT viability (%): 72 ± 11.3%
[3]
  IC50: > 20 µM
[4]; 2.3 μM
  Relative SEAP activity (%): 99 ± 7.8%
  SEAP/vibility: 0.99
[4]; 23 μM
  Relative SEAP activity (%): 97 ± 4.6%
  SEAP/vibility: 1.30
[4]; 234 μM
  Relative SEAP activity (%): 90 ± 2.9%
  SEAP/vibility: 2.83
Rat glioma C6 cells
  IC50: > 20 µM
[5]; 2.3 μM
  Relative SEAP activity (%): 39 ± 7.8%
  SEAP/vibility: 0.43
[5]; 23 μM
  Relative SEAP activity (%): 45 ± 11.0%
  SEAP/vibility: 0.65
[5]; 234 μM
  Relative SEAP activity (%): 37 ± 15.0%
  SEAP/vibility: 0.51
Human hepatoma G2 cells
  IC50: > 20 µM

## Cc1cc(C(=O)Nc2ccc(NC(=O)c3cc(C)oc3C)c3c2C(=O)c2ccccc2C3=O)c(C)o1 [VI26, 1,4-Bis(2,5-dimethylfuran-3-carbonylamido)-9,10-anthracenedione]
[2]; 2.0 μM
  Relative MTT viability (%): 87 ± 4.9%
[2]; 20 μM
  Relative MTT viability (%): 71 ± 2.3%
[2]; 207 μM
  Relative MTT viability (%): 47 ± 2.6%
hTERT-BJ1 cells; 2.0 μM
  Relative MTT viability (%): 101 ± 6.2%
hTERT-BJ1 cells; 20 μM
  Relative MTT viability (%): 101 ± 5.8%
hTERT-BJ1 cells; 207 μM
  Relative MTT viability (%): 93 ± 7.1%
[3]
  IC50: > 20 µM
[4]; 2.0 μM
  Relative SEAP activity (%): 104 ± 10.8%
  SEAP/vibility: 1.20
[4]; 20 μM
  Relative SEAP activity (%): 103 ± 10.0%
  SEAP/vibility: 1.46
[4]; 207 μM
  Relative SEAP activity (%): 98 ± 10.5%
  SEAP/vibility: 2.10
Rat glioma C6 cells
  IC50: > 20 µM
[5]; 2.0 μM
  Relative SEAP activity (%): 84 ± 13.3%
  SEAP/vibility: 0.83
[5]; 20 μM
  Relative SEAP activity (%): 79 ± 14.7%
  SEAP/vibility: 0.78
[5]; 207 μM
  Relative SEAP activity (%): 81 ± 16.1%
  SEAP/vibility: 0.88
Human hepatoma G2 cells
  IC50: > 20 µM

## O=C(CSc1ccccc1)Nc1ccc(NC(=O)CSc2ccccc2)c2c1C(=O)c1ccccc1C2=O [VI28, 1,4-Bis(phenylthioacetamido)-9,10-anthracenedione]
[2]; 1.8 μM
  Relative MTT viability (%): 104 ± 5.6%
[2]; 18 μM
  Relative MTT viability (%): 96 ± 4.3%
[2]; 185 μM
  Relative MTT viability (%): 59 ± 3.8%
hTERT-BJ1 cells; 1.8 μM
  Relative MTT viability (%): 115 ± 4.8%
hTERT-BJ1 cells; 18 μM
  Relative MTT viability (%): 105 ± 6.7%
hTERT-BJ1 cells; 185 μM
  Relative MTT viability (%): 60 ± 2.3%
[3]
  IC50: > 20 µM
[4]; 1.8 μM
  Relative SEAP activity (%): 93 ± 3.2%
  SEAP/vibility: 0.89
[4]; 18 μM
  Relative SEAP activity (%): 92 ± 3.5%
  SEAP/vibility: 0.96
[4]; 185 μM
  Relative SEAP activity (%): 80 ± 4.0%
  SEAP/vibility: 1.35
Rat glioma C6 cells
  IC50: > 20 µM
[5]; 1.8 μM
  Relative SEAP activity (%): 14 ± 14.7%
  SEAP/vibility: 0.12
[5]; 18 μM
  Relative SEAP activity (%): 23 ± 9.5%
  SEAP/vibility: 0.21
[5]; 185 μM
  Relative SEAP activity (%): 7 ± 9.6%
  SEAP/vibility: 0.12
Human hepatoma G2 cells
  IC50: > 20 µM

## O=C(Nc1ccc(NC(=O)c2ccc(F)cc2)c2c1C(=O)c1ccccc1C2=O)c1ccc(F)cc1 [VI30, 1,4-Bis(4-fluorobenzoylamido)-9,10-anthracenedione]
[2]; 2.0 μM
  Relative MTT viability (%): 110 ± 5.9%
[2]; 20 μM
  Relative MTT viability (%): 103 ± 6.6%
[2]; 207 μM
  Relative MTT viability (%): 89 ± 6.7%
hTERT-BJ1 cells; 2.0 μM
  Relative MTT viability (%): 103 ± 9.0%
hTERT-BJ1 cells; 20 μM
  Relative MTT viability (%): 107 ± 3.1%
hTERT-BJ1 cells; 207 μM
  Relative MTT viability (%): 83 ± 5.3%
[3]
  IC50: > 20 µM
[4]; 2.0 μM
  Relative SEAP activity (%): 111 ± 3.6%
  SEAP/vibility: 1.01
[4]; 20 μM
  Relative SEAP activity (%): 107 ± 4.8%
  SEAP/vibility: 1.04
[4]; 207 μM
  Relative SEAP activity (%): 107 ± 9.0%
  SEAP/vibility: 1.20
Rat glioma C6 cells
  IC50: > 20 µM
[5]; 2.0 μM
  Relative SEAP activity (%): 104 ± 16.3%
  SEAP/vibility: 1.01
[5]; 20 μM
  Relative SEAP activity (%): 101 ± 27.6%
  SEAP/vibility: 0.95
[5]; 207 μM
  Relative SEAP activity (%): 100 ± 14.5%
  SEAP/vibility: 1.20
Human hepatoma G2 cells
  IC50: > 20 µM

## O=C(Nc1ccc(NC(=O)c2ccc(C(F)(F)F)cc2)c2c1C(=O)c1ccccc1C2=O)c1ccc(C(F)(F)F)cc1 [VI31, 1,4-Bis(4-trifluorobenzoylamido)-9,10-anthracenedione]
[2]; 1.7 μM
  Relative MTT viability (%): 98 ± 7.8%
[2]; 17 μM
  Relative MTT viability (%): 100 ± 8.9%
[2]; 171 μM
  Relative MTT viability (%): 77 ± 6.7%
hTERT-BJ1 cells; 1.7 μM
  Relative MTT viability (%): 98 ± 4.4%
hTERT-BJ1 cells; 17 μM
  Relative MTT viability (%): 100 ± 3.4%
hTERT-BJ1 cells; 171 μM
  Relative MTT viability (%): 89 ± 3.6%
[3]
  IC50: > 20 µM
[4]; 1.7 μM
  Relative SEAP activity (%): 110 ± 5.5%
  SEAP/vibility: 1.12
[4]; 17 μM
  Relative SEAP activity (%): 114 ± 5.6%
  SEAP/vibility: 1.14
[4]; 171 μM
  Relative SEAP activity (%): 96 ± 2.1%
  SEAP/vibility: 1.24
Rat glioma C6 cells
  IC50: > 20 µM
[5]; 1.7 μM
  Relative SEAP activity (%): 100 ± 15.1%
  SEAP/vibility: 1.02
[5]; 17 μM
  Relative SEAP activity (%): 90 ± 16.3%
  SEAP/vibility: 0.90
[5]; 171 μM
  Relative SEAP activity (%): 103 ± 17.6%
  SEAP/vibility: 1.16
Human hepatoma G2 cells
  IC50: > 20 µM

## NCC1CC1CCC(=O)Nc1ccc(NC(=O)CCC2CC2CN)c2c1C(=O)c1ccccc1C2=O (stereo not drawn) [VI36, 1,4-Bis[2-(aminomnethyl)cyclopropanepropionamido]-9,10-anthracenedione]
[2]; 2.0 μM
  Relative MTT viability (%): 106 ± 4.1%
[2]; 20 μM
  Relative MTT viability (%): 64 ± 5.1%
[2]; 204 μM
  Relative MTT viability (%): 30 ± 4.7%
hTERT-BJ1 cells; 2.0 μM
  Relative MTT viability (%): 103 ± 6.4%
hTERT-BJ1 cells; 20 μM
  Relative MTT viability (%): 92 ± 11.4%
hTERT-BJ1 cells; 204 μM
  Relative MTT viability (%): 104 ± 17.4%
[3]
  IC50: 3.46 µM
[4]; 2.0 μM
  Relative SEAP activity (%): 123 ± 12.4%
  SEAP/vibility: 1.16
[4]; 20 μM
  Relative SEAP activity (%): 112 ± 11.5%
  SEAP/vibility: 1.76
[4]; 204 μM
  Relative SEAP activity (%): 80 ± 14.5%
  SEAP/vibility: 2.71
Rat glioma C6 cells
  IC50: 2.76 µM
[5]; 2.0 μM
  Relative SEAP activity (%): 91 ± 19.4%
  SEAP/vibility: 0.88
[5]; 20 μM
  Relative SEAP activity (%): 95 ± 14.2%
  SEAP/vibility: 1.03
[5]; 204 μM
  Relative SEAP activity (%): 65 ± 15.7%
  SEAP/vibility: 0.63
Human hepatoma G2 cells
  IC50: 6.46 µM
